Test [1] deals with T1, PDE4B (human recombinant) (Homo sapiens, UniProt Q07343).
T1 construct: made in house; host or cells: Saccharomyces cerevisiae strain GL62 (PDE-deficient yeast)
The test is described as follows: PDE4B inhibition, IMAP Fluorescence Polarisation (FP) assay. In kind it is biochemical. As to conditions: mean of n = 3 readings; accurate to about ±0.5 log unit; read-out: PDE4B pIC50 (± about 0.5) (FP assay), Mean pIC50 value (converted). From the text:
Human recombinant PDE4B, in particular the 2B splice variant thereof (HSPDE4B2B), is disclosed in WO 94/20079 and also M. M. McLaughlin et al., “A low Km, rolipram-sensitive, cAMP-specific phosphodiesterase from human brain: cloning and expression of cDNA, biochemical characterisation of recombinant protein, and tissue distribution of mRNA”, J. Biol. Chem., 1993, 268, 6470-6476. For example, in Example 1 of WO 94/20079, human recombinant PDE4B is described as being expressed in the PDE-deficient yeast Saccharomyces cerevisiae strain GL62, e.g. after induction by addition of 150 uM CuSO4, and 100,000×g supernatant fractions of yeast cell lysates are described for use in the harvesting of PDE4B enzyme.
The ability of compounds to inhibit catalytic activity at PDE4B (human recombinant) or PDE4D (human recombinant) can optionally be determined by IMAP Fluorescence Polarisation (FP) assay (IMAP Explorer kit, available from Molecular Devices Corporation, Sunnydale, Calif., USA; Molecular Devices code: R8062) in 384-well format.
The IMAP FP assay is able to measure PDE activity in an homogenous, non-radioactive assay format. […] Binding of Fl-AMP product to the beads (coated with the immobilised trivalent cations) slows the rotation of the bound Fl-AMP and leads to an increase in the fluorescence polarisation ratio of parallel to perpendicular light. […]
In general terms: Polarisation of emitted light reports the rotation of a fluorescent probe.

For test [2], the system named is TNF-α (TNF-alpha) production in Human Whole Blood. The test is described as follows: Inhibition of TNF-alpha production in Human Whole Blood (IGEN assay). It counts as cell-based. The protocol:
This is an optional supplementary test, e.g. for potentially orally-administrable PDE4 inhibitors. Also, as the assay may measure the effect of PDE4 inhibitors after loss by protein binding, it might possibly also be relevant to externally-topically-administrable PDE4 inhibitors as protein-binding-loss of compound is possible during transport through the skin.
Test compounds are prepared as a ca. 10 mM stock solution in DMSO and a dilution series prepared in DMSO with 8 successive 3-fold dilutions, either directly from the 10 mM stock solution or from a more dilute solution in DMSO. The compound is added to assay plates using a Biomek Fx liquid handling robot.
Heparinised blood drawn from normal volunteers is dispensed (ca. 100 μl=ca. 100 ul) into microtitre plate wells containing ca. 0.5 or ca. 1.0 μl (ul, microlitres) of an appropriately diluted test compound solution. […] Plasma TNFα content is determined by electrochemiluminescence assay using the MSD technology (see below), the IGEN technology (see below) or by enzyme linked immunosorbant assay (ELISA) (see below).
Ca. […] 50 μl (ul) of streptavidin/biotinylated anti-TNF-α antibody mix, ca. 25 μl ruthenium tagged anti-TNF-α monoclonal and ca. 100 μl PBS containing 0.1% bovine serum albumin are added to each well and the plates are sealed and shaken for ca. 2 hours before being read on an IGEN instrument.

Read-outs that look alike come from different tables or passages of the source.

T1 sequence (Q07343 1-564 isoform Q07343-2): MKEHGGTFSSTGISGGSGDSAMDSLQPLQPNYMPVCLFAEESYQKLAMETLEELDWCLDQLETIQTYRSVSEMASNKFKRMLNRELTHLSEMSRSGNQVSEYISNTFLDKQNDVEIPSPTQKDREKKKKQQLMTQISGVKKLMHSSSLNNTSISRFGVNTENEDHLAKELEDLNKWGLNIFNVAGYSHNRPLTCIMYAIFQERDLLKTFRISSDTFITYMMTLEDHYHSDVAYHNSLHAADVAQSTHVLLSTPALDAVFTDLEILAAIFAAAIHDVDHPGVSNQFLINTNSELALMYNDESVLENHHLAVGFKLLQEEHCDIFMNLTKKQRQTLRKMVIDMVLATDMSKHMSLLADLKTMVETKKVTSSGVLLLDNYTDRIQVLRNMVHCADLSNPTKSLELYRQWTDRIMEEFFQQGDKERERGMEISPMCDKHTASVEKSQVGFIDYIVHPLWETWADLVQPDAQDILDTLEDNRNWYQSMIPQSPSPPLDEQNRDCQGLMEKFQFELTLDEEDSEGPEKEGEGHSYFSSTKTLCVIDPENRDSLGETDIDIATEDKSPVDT

Take `CCc1nc2c(cnn2CC)c(NC2CCOCC2)c1CNC(=O)c1cc(C)no1` [Example 1, N-{[1,6-diethyl-4-(tetrahydro-2H-pyran-4-ylamino)-1H-pyrazolo[3,4-b]pyridin-5-yl]methyl}-3-methyl-5-isoxazolecarboxamide]: the IC50 in test [1] is about 0.158 nM; in test [2] (n = about 4, LPS-stimulated, read-out: Whole Blood, Mean pIC50 (IGEN assay) (converted)), about 2 nM; in test [2] (range of individual measurements, read-out: Whole Blood individual pIC50 test values, range (IGEN assay) (converted)), 1.26 to 2.63 nM.

The values are drawn from US20080255186A1, “Pyrazolo[3,4-B]Pyridine Compound, and Its Use as a Pde4 Inhibitor” (priority 2005, published 2008).
